Legend:
Type in all cases: in vivo
[1] = system: johnsongrass (Sorghum halepense); assay: Test C preemergence
How it was run: (§1)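 Each compound was dissolved in a non-phytotoxic solvent system containing a surfactant and sprayed either on freshly planted seeds (preemergence) or on young plants, 2 to 18 cm high (postemergence). Ratings after 12 to 14 greenhouse days ran from 0, no effect, to 100, complete control.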

[2] = system: velvetleaf (Abutilon theophrasti); assay: Test C preemergence
How it was run: as §1

[3] = system: lambsquarters (Chenopodium album); assay: Test C preemergence
How it was run: as §1

soybean (Glycine max) = assay: Test C preemergence
How it was run: as §1

[4] = system: crabgrass (Digitaria sanguinalis); assay: Test C preemergence
How it was run: as §1

[5] = system: morningglory (Ipomoea hederacea); assay: Test C preemergence
How it was run: as §1

kochia (Kochia scoparia) = assay: Test C preemergence
How it was run: as §1

[6] = system: cocklebur (Xanthium strumarium); assay: Test C preemergence
How it was run: as §1

Nightshade = assay: Test C preemergence
[7] = system: woolly cupgrass (Eriochloa villosa); assay: Test C preemergence
How it was run: as §1

[8] = system: common ragweed (Ambrosia elatior); assay: Test C preemergence
How it was run: as §1

[9] = system: Surinam grass (Brachiaria decumbens); assay: Test C preemergence
How it was run: as §1

[10] = system: goosegrass (Eleusine indica); assay: Test C preemergence
How it was run: as §1

corn (Zea mays) [11] = assay: Test C preemergence
How it was run: as §1

[12] = system: velvetleaf (Abutilon theophrasti); assay: Test B postemergence
How it was run: (§2)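 Greenhouse test: chemicals are formulated in a surfactant-containing non-phytotoxic solvent and applied either preemergence to planted seeds or postemergence to plants 2 to 18 cm tall. Response is rated visually versus controls after 13 to 15 days, 0 meaning no effect and 100 complete control.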

[13] = system: lambsquarters (Chenopodium album); assay: Test B postemergence
How it was run: as §2

[14] = system: morning glory (Ipomoea hederacea); assay: Test B postemergence
How it was run: as §2

[15] = system: barnyardgrass (Echinochloa crus-galli); assay: Test B postemergence
How it was run: as §2

[16] = system: Surinam grass (Brachiaria decumbens); assay: Test B postemergence
How it was run: as §2

corn (Zea mays) [17] = assay: Test B postemergence
How it was run: as §2

[18] = Rate 125 g/ha, scale 0 to 100, 0 no effect, 100 complete control
[19] = preemergence, Rate 62 g/ha, scale 0 to 100
[20] = preemergence, Rate 500 g/ha, visual evaluation after 12 to 14 days
[21] = preemergence, Rate 250 g/ha, scale 0 to 100, 0 no effect, 100 complete control
[22] = Rate 500 g/ha, scale 0 (no effect) to 100 (complete control), 13 to 15 days

CCC(C)c1ccn(C2CCN(c3ccc(Br)c(OC)c3)C2=O)n1 (stereo not shown) [Compound 142]
Plant response rating, Johnsongrass [1, 18]: 0
Plant response rating, Johnsongrass [1, 19]: 0
Plant response rating (0 to 100), Johnsongrass [1, 20]: 100
Plant response rating, Johnsongrass [1, 21]: 100
Plant response rating, Velvetleaf [2, 18]: 90
Plant response rating, Velvetleaf [2, 19]: 10
Plant response rating (0 to 100), Velvetleaf [2, 20]: 100
Plant response rating, Velvetleaf [2, 21]: 100
Plant response rating, Lambsquarters [3, 18]: 100
Plant response rating, Lambsquarters [3, 19]: 100
Plant response rating (0 to 100), Lambsquarters [3, 20]: 100
Plant response rating, Lambsquarters [3, 21]: 100
Plant response rating, Soybean (soybean (Glycine max); [18]): 70
Plant response rating, Soybean (soybean (Glycine max); [19]): 30
Plant response rating (0 to 100), Soybean (soybean (Glycine max); [20]): 100
Plant response rating, Soybean (soybean (Glycine max); [21]): 100
Plant response rating, Crabgrass [4, 18]: 100
Plant response rating, Crabgrass [4, 19]: 100
Plant response rating (0 to 100), Crabgrass [4, 20]: 100
Plant response rating, Crabgrass [4, 21]: 100
Plant response rating, Morningglory [5, 18]: 100
Plant response rating, Morningglory [5, 19]: 90
Plant response rating (0 to 100), Morningglory [5, 20]: 100
Plant response rating, Morningglory [5, 21]: 100
Plant response rating, Kochia (kochia (Kochia scoparia); [18]): 100
Plant response rating, Kochia (kochia (Kochia scoparia); [19]): 100
Plant response rating (0 to 100), Kochia (kochia (Kochia scoparia); [20]): 100
Plant response rating, Kochia (kochia (Kochia scoparia); [21]): 100
Plant response rating, Cocklebur [6, 18]: 30
Plant response rating, Cocklebur [6, 19]: 0
Plant response rating (0 to 100), Cocklebur [6, 20]: 60
Plant response rating, Cocklebur [6, 21]: 30
Plant response rating, Nightshade (Nightshade; Rate 62 g/ha, scale 0 to 100): 90
Plant response rating, Nightshade (Nightshade; [18]): 100
Plant response rating, Nightshade (Nightshade; Rate 250 g/ha, scale 0 to 100, 0 no effect, 100 complete control): 100
Plant response rating, Cupgrass, Woolly [7, 18]: 100
Plant response rating, Cupgrass, Woolly [7, 19]: 90
Plant response rating (0 to 100), Cupgrass, Woolly [7, 20]: 100
Plant response rating, Cupgrass, Woolly [7, 21]: 100
Plant response rating, Ragweed, Common [8, 18]: 100
Plant response rating, Ragweed, Common [8, 19]: 0
Plant response rating (0 to 100), Ragweed, Common [8, 20]: 100
Plant response rating, Ragweed, Common [8, 21]: 100
Plant response rating, Surinam grass [9, 18]: 0
Plant response rating, Surinam grass [9, 19]: 0
Plant response rating (0 to 100), Surinam grass [9, 20]: 100
Plant response rating, Surinam grass [9, 21]: 50
Plant response rating, Goosegrass [10, 18]: 100
Plant response rating, Goosegrass [10, 19]: 100
Plant response rating (0 to 100), Goosegrass [10, 20]: 100
Plant response rating, Goosegrass [10, 21]: 100
Plant response rating, Corn (corn (Zea mays) [11]; [18]): 0
Plant response rating, Corn (corn (Zea mays) [11]; [19]): 0
Plant response rating (0 to 100), Corn (corn (Zea mays) [11]; [20]): 10
Plant response rating, Corn (corn (Zea mays) [11]; [21]): 0
Plant response rating, Velvetleaf [12, 18]: 40
Plant response rating, Velvetleaf [12, 22]: 70
Plant response rating, Lambsquarters [13, 18]: 70
Plant response rating, Lambsquarters [13, 22]: 100
Plant response rating, Morningglory [14, 18]: 70
Plant response rating, Morningglory [14, 22]: 100
Plant response rating, Barnyardgrass [15, 18]: 0
Plant response rating, Barnyardgrass [15, 22]: 60
Plant response rating, Surinam grass [16, 18]: 0
Plant response rating, Surinam grass [16, 22]: 0
Plant response rating, Corn (corn (Zea mays) [17]; [18]): 0
Plant response rating, Corn (corn (Zea mays) [17]; [22]): 30

From patent publication US7138361B2, “Herbicidal heterocycles” (E. I. du Pont de Nemours and Company, priority 2000, dated 2006)
